From US20080248030A1, “Method of Treating Angiogenic Diseases” (Children's Medical Center Corporation, priority 2005, published 2008)

Tests used:
human melanoma (A2058) = format: in vivo; conditions: Caplostatin 30 mg/kg s.c. q.o.d; Avastin 1 mg/kg i.p. twice/week
Description: Combination treatment was also tested on mice bearing s.c. A2058 human melanoma, PC-3M-LN4 human prostate carcinoma or COLO-205 colon carcinoma or orthotopic intracranial U87-luciferase human glioblastoma.

VEGFR-2 = conditions: recently shown; cited from earlier work
A2058 human melanoma = assay: Antitumor activity on SCID mice bearing s.c. A2058 human melanoma; format: in vivo; conditions: summary in conclusions, tumor models not named
From the text: Each group consisted of 5 mice.

chick aortic ring = assay: Chick aortic ring endothelial sprouting assay; format: cell-based; conditions: for effect on outgrowth: 100 pg/ml
Description: Aortic arches were dissected from day-14 chick embryos, cut into cross-sectional fragments, and implanted in vitro in Matrigel using a modification of methods previously described (V. Muthulckaruppan, personal communication). When cultured in MCDB-131 medium supplemented with 5% fetal bovine serum, endothelial cells sprouted and vascular channel formation occurred within 24-48 hours. Free or conjugated TNP-470 (10 pg/ml to 1 μg/ml) was added to the culture.

BCE cells = assay: Bovine capillary endothelial (BCE) cell proliferation assay; format: cell-based; conditions: 10 pg/ml to 1 μg/ml TNP-470-equivalent concentration, 72 h
Description: For the proliferation assay, cells were washed with PBS and dispersed in a 0.05% trypsin solution. Cells were suspended (15,000 cells/ml) in DMEM supplemented with 10% BCS and 1% GPS, plated onto gelatinized 24-well culture plates (0.5 ml/well), and incubated for 24 h (37° C., 10% CO2). The media was replaced with 0.25 ml of DMEM, 5% BCS and 1% GPS and the test sample applied. Cells were challenged with free or conjugated TNP-470 (10 pg/ml to 1 μg/ml TNP-470-equivalent concentration). After 30 min of incubation, media and bFGF were added to obtain a final volume of 0.5 ml of DMEM, 5% BCS, 1% GPS and 1 ng/ml bFGF. Control cells were grown with or without bFGF. After 72 hr, cells were dispersed in trypsin, resuspended in Hematall (Fisher Scientific, Pittsburgh, Pa.), and counted in a Coulter counter.

[1] = system: liver regeneration post hepatectomy; assay: Hepatectomy model (liver regeneration); format: in vivo, C57BL/6J mice
Description: Male C57BL/6J mice underwent a partial hepatectomy through a midline incision after general anesthesia with isoflourane^33. Free or conjugated TNP-470 (30 mg/kg) were given s.c. every other day for 8 days beginning on the day of surgery according to the scheme described in FIG. 4a. Alternatively, the doses given were 60 mg/kg the day of surgery and 4 days later or 120 mg/kg once on the day of the partial hepatectomy. The liver was harvested on the 8th day, weighed and analyzed by histology.
This non-neoplastic model is a relatively fast (8 days) in vivo angiogenesis-dependent process^33. We employed the hepatectomy model to compare the endothelial cell inhibitory activity of free and conjugated TNP-470, because liver regeneration post hepatectomy is angiogenesis-dependent, similar to tumor growth^33,34.

Early mouse development = conditions: injected into 7 and 17 day-old BALB/c mice
Description: Free and conjugated TNP-470 were injected into 7 and 17 day-old BALB/c mice in order to test their effects on normal development.

LLC = assay: Antitumor activity on C57BL/6J mice bearing s.c. LLC; conditions: 30 mg/kg q.o.d., data not shown
[2] = human, in vivo; cited from earlier work

Compound	TIC (human melanoma (A2058))	VEGFR-2 phosphorylation (VEGFR-2)	effect on outgrowth (chick aortic ring)	inhibition of bFGF-induced proliferation (cytostatic effect) (BCE cells)	also measured
Avastin: recombinant humanized antibody to Vascular Endothelial Growth Factor (VEGF), Genentech	0.47	–	–	–	–
N-(2-lydroxypropyl)methacrylamide (HPMA) copolymer-TNP-470 conjugate [HPMA copolymer-TNP-470]	029	inhibit VEGFR-2 phosphorylation	completely prevented outgrowth	inhibited bFGF-induced proliferation	T/C values for the conjugate (summary) (A2058 human melanoma): 0.12-0.14; effect on vascular sprouts (chick aortic ring; 50 pg/ml): reduced the number and length of vascular sprouts; inhibition of liver regeneration ([1]; 60 mg/kg every four days): had an equivalent effect as the 30 mg/kg q.o.d. dosing schedule; inhibition of liver regeneration ([1]; single injection of 120 mg/kg at the day of hepatectomy): had an equivalent effect as the 30 mg/kg q.o.d. dosing schedule
CO[C@@H]1[C@H](OC(=O)NC(=O)CCl)CC[C@]2(CO2)[C@H]1[C@@]1(C)O[C@@H]1CC=C(C)C [TNP-470]	–	inhibit VEGFR-2 phosphorylation	completely prevented outgrowth	inhibited bFGF-induced proliferation	effect on normal development (weight gain) (Early mouse development): inhibited growth, by inhibiting weight gain; induction of weight loss (LLC): did
COc1cccc2c1C(=O)c1c(O)c3c(c(O)c1C2=O)C[C@@](O)(C(=O)CO)C[C@@H]3O[C@H]1C[C@H](N)[C@H](O)[C@H](C)O1 [doxorubicin]	–	–	–	–	t1/2α (in words) [2]: few minutes
